# Marks after values point to notes of the source that are not given here.
# How the values were obtained:
# [1] = system: α-1,4-glucan lyase from the parasite-free red seaweed Gracilariopsis lemaneiformis; assay: Degradation rates of the Californian algal lyase on various substrates; type: biochemical; settings: for AF released: substrate 10 mg/ml, pH 3.8, 40 min at 45° C.
# Description: Reaction conditions: The reaction mixture contained 10 mM of HOAc-NaOAc (pH 3.8). The substrate concentration was 10 mg/ml. The final volume was 100 ul after the addition of lyase and water. The reaction time was 40 min at 45° C.
# [2] = system: lyase from M. costata; assay: Relative degrading rates of the lyase from M. costata towards various substrates; type: biochemical, Morchella costata; settings: for degradation (AF detectable on TLC plates): incubated for 48 h; for activity (maltotetraose as 100%): purified fungal lyase, section B.1.4.3
# [3] = system: lyase from M. vulgaris; assay: Relative degrading rates of the lyase from M. vulgaris towards various substrates; type: biochemical, Morchella vulgaris; settings: for degradation (AF detectable on TLC plates): incubated for 48 h; for Activity (%) (maltotetraose = 100%): all substrates 10 mg ml^−1
# Description: The activity observed for maltotetraose is treated as 100%. The final concentration of all substrates was 10 mg ml^−1.
# [4] = system: lyase purified from the fungal infected algae; assay: Effect of alcohols on activity and stability of the lyase (AF yield); type: biochemical, fungal infected Gracilariopsis lemaneiformis
# Description: 1-propanol, 2-propanol and 1-butanol were tested at the following concentrations (0%, 1%, 5% and 10%).
# Ethanol was tested at the following concentrations (0, 1, 3, 5, 7, 9, 11, 13, 15%).
# [5] = system: lyase from the fungal infected Gracilariopsis lemaneiformis; assay: Reaction rates with glycogen and amylopectin, lyase from fungal infected Gracilariopsis lemaneiformis; type: biochemical
# [6] = system: α-1,4-glucan lyase; assay: Activity of the lyase towards maltosaccharides (summary); type: biochemical
compound,measurement,setting,value
pullulan,degradation by the lyase,[1],not able to degrade
same,degradation (AF detectable on TLC plates),[2],no AF detectable
same,degradation (AF detectable on TLC plates),[3],no AF detectable
CCO [Ethanol],increase of AF yield,"[4]; 3%, 10 days incubation",16%
same,increase of AF yield,"[4]; 5%, 7 days incubation",12%
same,optimal concentration for AF yield,"[4]; 7 days incubation, tested 0-15%",5%
same,optimal concentration for AF yield,"[4]; 10 days incubation, tested 0-15%",3%
Glycogen,substrate concentration at which half of the maximal velocity rate was reached,[1],3.37 mg/mL
same,AF released,[1],592 nmol
same,degradation by the fungal lyase,[2],also degraded
same,relative degrading rate (maltotetraose = 100%),[2]; substrate 10 mg/ml,128.5%
same,Activity (%) (maltotetraose = 100%),[3],183.3%
same,ratio of relative reaction rates between Glycogen and Amylopectin (%),[5]; 25 C.,72.4%
same,relative reaction rates,[5]; 25 C.,0.592^a
same,ratio of relative reaction rates between Glycogen and Amylopectin (%),[5]; 30 C.,79.8%
same,relative reaction rates,[5]; 30 C.,0.904^a
same,ratio of relative reaction rates between Glycogen and Amylopectin (%),[5]; 45 C.,158.9%
same,relative reaction rates,[5]; 45 C.,1.861^a
OC[C@H]1O[C@H](O[C@@H]2[C@@H](O)[C@@H](O[C@@H]3[C@@H](O)[C@@H](O[C@H]4[C@H](O)[C@@H](CO)OC(O)[C@@H]4O)O[C@H](CO)[C@H]3O)O[C@H](CO)[C@H]2O)[C@H](O)[C@@H](O)[C@@H]1O (stereo partly drawn) [nigerotetraose],degradation by the lyase,[1],not able to degrade
same,degradation (AF detectable on TLC plates),[2],no AF detectable
same,degradation (AF detectable on TLC plates),[3],no AF detectable
OC[C@H]1O[C@H](O[C@H]2[C@H](O)[C@@H](CO)OC(O)[C@@H]2O)[C@H](O)[C@@H](O)[C@@H]1O (stereo partly drawn) [nigerose],degradation by the lyase,[1],slow rate
same,degradation (AF detectable on TLC plates),[2],no AF detectable
same,degradation (AF detectable on TLC plates),[3],no AF detectable
"OC[C@H]1O[C@H](O[C@H]2[C@H](O)[C@@H](O)[C@@H](O[C@H]3[C@H](O)[C@@H](O)[C@@H](O[C@H]4[C@H](O)[C@@H](O)[C@@H](O[C@H]5[C@H](O)[C@@H](O)C(O)O[C@@H]5CO)O[C@@H]4CO)O[C@@H]3CO)O[C@@H]2CO)[C@H](O)[C@@H](O)[C@@H]1O (stereo partly drawn) [Maltopentaose, maltopentaose]",AF released,[1],674 nmol
same,relative degrading rate (maltotetraose = 100%),[2]; substrate 2 mg/ml,107.1%
same,relative degrading rate (maltotetraose = 100%),[2]; substrate 4 mg/ml,100.1%
same,relative degrading rate (maltotetraose = 100%),[2]; substrate 10 mg/ml,99.7%
same,Activity (%) (maltotetraose = 100%),[3],79.3%
same,lyase activity towards maltosaccharide,[6],highest activity
1-propanol,AF yield,"[4]; 1% (v/v), 1 day",80 µmol
same,AF yield,"[4]; 1% (v/v), 3 days",280 µmol
same,AF yield,"[4]; 1% (v/v), 6 days",530 µmol
same,AF yield,"[4]; 1% (v/v), 10 days",803 µmol
same,AF yield,"[4]; 5% (v/v), 1 day",115 µmol
same,AF yield,"[4]; 5% (v/v), 3 days",367 µmol
same,AF yield,"[4]; 5% (v/v), 6 days",605 µmol
same,AF yield,"[4]; 5% (v/v), 10 days",853 µmol
same,increase of AF yield,"[4]; 5%, after 6 days of incubation",34%
same,AF yield,"[4]; 10% (v/v), 1 day",107 µmol
same,AF yield,"[4]; 10% (v/v), 3 days",307 µmol
same,AF yield,"[4]; 10% (v/v), 6 days",456 µmol
same,AF yield,"[4]; 10% (v/v), 10 days",583 µmol
same,optimal concentration for AF yield,"[4]; tested at 0%, 1%, 5% and 10%",5%
"OCC1OC(OC2C(CO)OC(OC3C(CO)OC(O)C(O)C3O)C(O)C2O)C(O)C(O)C1O (stereo not drawn) [Maltotriose, maltotriose]",AF released,[1],654 nmol
same,activity (maltotetraose as 100%),[2],56%
same,relative degrading rate (maltotetraose = 100%),[2]; substrate 2 mg/ml,40.6%
same,relative degrading rate (maltotetraose = 100%),[2]; substrate 4 mg/ml,58.6%
same,relative degrading rate (maltotetraose = 100%),[2]; substrate 10 mg/ml,56.0%
same,Activity (%) (maltotetraose = 100%),[3],49.8%
same,lyase activity towards maltosaccharide,[6],lower activity
"OC[C@H]1O[C@H](O[C@H]2[C@H](O)[C@@H](O)[C@@H](O[C@H]3[C@H](O)[C@@H](O)[C@@H](O[C@H]4[C@H](O)[C@@H](O)C(O)O[C@@H]4CO)O[C@@H]3CO)O[C@@H]2CO)[C@H](O)[C@@H](O)[C@@H]1O (stereo partly drawn) [Maltotetraose, maltotetraose]",AF released,[1],670 nmol
same,activity (maltotetraose as 100%),[2],100%
same,relative degrading rate (maltotetraose = 100%),[2]; substrate 2 mg/ml,100%
same,relative degrading rate (maltotetraose = 100%),[2]; substrate 4 mg/ml,100%
same,relative degrading rate (maltotetraose = 100%),[2]; substrate 10 mg/ml,100%
same,Activity (%) (maltotetraose = 100%),[3],100.0%
same,lyase activity towards maltosaccharide,[6],highest activity
"OC[C@H]1O[C@H](O[C@H]2[C@H](O)[C@@H](O)[C@@H](O[C@H]3[C@H](O)[C@@H](O)[C@@H](O[C@H]4[C@H](O)[C@@H](O)[C@@H](O[C@H]5[C@H](O)[C@@H](O)[C@@H](O[C@H]6[C@H](O)[C@@H](O)C(O)O[C@@H]6CO)O[C@@H]5CO)O[C@@H]4CO)O[C@@H]3CO)O[C@@H]2CO)[C@H](O)[C@@H](O)[C@@H]1O (stereo partly drawn) [Maltohexaose, maltohexaose]",AF released,[1],826 nmol
same,activity (maltotetraose as 100%),[2],97%
same,relative degrading rate (maltotetraose = 100%),[2]; substrate 2 mg/ml,86.6%
same,relative degrading rate (maltotetraose = 100%),[2]; substrate 4 mg/ml,98.2%
same,relative degrading rate (maltotetraose = 100%),[2]; substrate 10 mg/ml,95.9%
same,Activity (%) (maltotetraose = 100%),[3],92.4%
OC[C@H]1O[C@@H]2O[C@H]3[C@H](O)[C@@H](O)[C@@H](O[C@H]4[C@H](O)[C@@H](O)[C@@H](O[C@H]5[C@H](O)[C@@H](O)[C@@H](O[C@H]6[C@H](O)[C@@H](O)[C@@H](O[C@H]7[C@H](O)[C@@H](O)[C@@H](O[C@H]8[C@H](O)[C@@H](O)[C@@H](O[C@H]1[C@H](O)[C@H]2O)O[C@@H]8CO)O[C@@H]7CO)O[C@@H]6CO)O[C@@H]5CO)O[C@@H]4CO)O[C@@H]3CO [beta-cyclodextrin],degradation by the lyase,[1],not able to degrade
same,degradation (AF detectable on TLC plates),[2],no AF detectable
same,degradation (AF detectable on TLC plates),[3],no AF detectable
OC[C@H]1O[C@H](OC[C@H]2OC(O)[C@H](O)[C@@H](O)[C@@H]2O)[C@H](O)[C@@H](O)[C@@H]1O (stereo partly drawn) [isomaltose],degradation by the lyase,[1],not able to degrade
same,degradation (AF detectable on TLC plates),[2],no AF detectable
same,degradation (AF detectable on TLC plates),[3],no AF detectable
O=[N+]([O-])c1ccc(OC2OC(CO)C(OC3OC(CO)C(OC4OC(CO)C(OC5OC(CO)C(OC6OC(CO)C(OC7OC(CO)C(OC8OC(CO)C(O)C(O)C8O)C(O)C7O)C(O)C6O)C(O)C5O)C(O)C4O)C(O)C3O)C(O)C2O)cc1 (stereo not drawn),degradation by the fungal lyase,[2],failed to degrade
same,degradation (AF detectable on TLC plates),[2],no AF detectable
same,degradation (AF detectable on TLC plates),[3],no AF detectable
OC[C@H]1O[C@H](O[C@H]2O[C@H](CO)[C@@H](O)[C@H](O)[C@H]2O)[C@H](O)[C@@H](O)[C@@H]1O [Trehalose],degradation by the lyase,[1],not able to degrade
same,degradation (AF detectable on TLC plates),[2],no AF detectable
same,degradation (AF detectable on TLC plates),[3],no AF detectable
O=[N+]([O-])c1ccc(O[C@H]2O[C@H](CO)[C@@H](O[C@H]3O[C@H](CO)[C@@H](O[C@H]4O[C@H](CO)[C@@H](O[C@H]5O[C@H](CO)[C@@H](O[C@H]6O[C@H](CO)[C@@H](O[C@H]7O[C@H](CO)[C@@H](O[C@H]8O[C@H](CO)[C@@H](O)[C@H](O)[C@H]8O)[C@H](O)[C@H]7O)[C@H](O)[C@H]6O)[C@H](O)[C@H]5O)[C@H](O)[C@H]4O)[C@H](O)[C@H]3O)[C@H](O)[C@H]2O)cc1 [p-nitrophenyl α-D-maltoheptaose],degradation by the fungal lyase,[2],degraded
CC(C)O [2-propanol],increase of AF yield,"[4]; 1%, after 10 days incubation",20%
same,optimal concentration for AF yield,"[4]; tested at 0%, 1%, 5% and 10%",1%
Soluble starch,relative degrading rate (maltotetraose = 100%),[2]; substrate 10 mg/ml,92.9%
same,Activity (%) (maltotetraose = 100%),[3],100.5%
OC[C@H]1O[C@@H]2O[C@H]3[C@H](O)[C@@H](O)[C@@H](O[C@H]4[C@H](O)[C@@H](O)[C@@H](O[C@H]5[C@H](O)[C@@H](O)[C@@H](O[C@H]6[C@H](O)[C@@H](O)[C@@H](O[C@H]7[C@H](O)[C@@H](O)[C@@H](O[C@H]8[C@H](O)[C@@H](O)[C@@H](O[C@H]9[C@H](O)[C@@H](O)[C@@H](O[C@H]1[C@H](O)[C@H]2O)O[C@@H]9CO)O[C@@H]8CO)O[C@@H]7CO)O[C@@H]6CO)O[C@@H]5CO)O[C@@H]4CO)O[C@@H]3CO [gama-cyclodextrin],degradation by the lyase,[1],not able to degrade
same,degradation (AF detectable on TLC plates),[2],no AF detectable
same,degradation (AF detectable on TLC plates),[3],no AF detectable
amylose,degradation by the fungal lyase,[2],also degraded
OC[C@H]1O[C@@H]2O[C@H]3[C@H](O)[C@@H](O)[C@@H](O[C@H]4[C@H](O)[C@@H](O)[C@@H](O[C@H]5[C@H](O)[C@@H](O)[C@@H](O[C@H]6[C@H](O)[C@@H](O)[C@@H](O[C@H]7[C@H](O)[C@@H](O)[C@@H](O[C@H]1[C@H](O)[C@H]2O)O[C@@H]7CO)O[C@@H]6CO)O[C@@H]5CO)O[C@@H]4CO)O[C@@H]3CO [alpha-cyclodextrin],degradation by the lyase,[1],not able to degrade
same,degradation (AF detectable on TLC plates),[2],no AF detectable
same,degradation (AF detectable on TLC plates),[3],no AF detectable
1-butanol,increase of AF yield,"[4]; 5%, after 3-day incubation",52%
same,optimal concentration for AF yield,"[4]; tested at 0%, 1%, 5% and 10%",5%
OC[C@H]1O[C@H](OC[C@H]2O[C@H](O[C@H]3[C@H](O)[C@@H](O)C(O)O[C@@H]3CO)[C@H](O)[C@@H](O)[C@@H]2O)[C@H](O)[C@@H](O)[C@@H]1O (stereo partly drawn) [panose],degradation by the lyase,[1],slow rate
same,degradation (AF detectable on TLC plates),[2],no AF detectable
same,degradation (AF detectable on TLC plates),[3],no AF detectable

# Source: US6632643B2, “Use of α-1,4-glucan lyase for preparation of 1,5-D-hydrofructose” (Danisco A/S, priority 1993, dated 2003)
